Test results as given in patent US9234018B2, “Compositions and methods for the treatment of VprBP-related cancers” (University of Southern California, priority 2013, dated 2016).
pIC50: −log10 of the molar value.

Assays:
AURKA = AURKA (Homo sapiens, UniProt O14965); assay: Kinase selectivity panel; format: biochemical
BCK = assay: Kinase selectivity panel; format: biochemical, human
CDK7 = CDK7 (Homo sapiens, UniProt P50613); assay: Kinase selectivity panel; format: biochemical
CHK1 = CHK1 (Homo sapiens, UniProt O14757); assay: Kinase selectivity panel; format: biochemical
Chain of CHK1 (O14757 whole entry): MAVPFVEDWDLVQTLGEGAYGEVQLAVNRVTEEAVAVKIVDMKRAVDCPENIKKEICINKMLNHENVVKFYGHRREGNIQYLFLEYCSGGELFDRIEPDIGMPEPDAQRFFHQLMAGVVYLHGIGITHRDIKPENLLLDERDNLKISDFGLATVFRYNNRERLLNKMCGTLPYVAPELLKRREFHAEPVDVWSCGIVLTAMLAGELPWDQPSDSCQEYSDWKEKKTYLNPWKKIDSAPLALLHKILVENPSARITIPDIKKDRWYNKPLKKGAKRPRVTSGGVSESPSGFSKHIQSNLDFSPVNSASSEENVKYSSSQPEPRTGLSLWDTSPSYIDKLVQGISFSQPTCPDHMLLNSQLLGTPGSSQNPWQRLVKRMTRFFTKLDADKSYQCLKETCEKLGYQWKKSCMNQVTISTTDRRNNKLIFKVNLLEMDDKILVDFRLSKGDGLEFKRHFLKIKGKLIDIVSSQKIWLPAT

CSNK1D = CSNK1D (Homo sapiens, UniProt P48730); assay: Kinase selectivity panel; format: biochemical
Chain of CSNK1D (P48730 whole entry): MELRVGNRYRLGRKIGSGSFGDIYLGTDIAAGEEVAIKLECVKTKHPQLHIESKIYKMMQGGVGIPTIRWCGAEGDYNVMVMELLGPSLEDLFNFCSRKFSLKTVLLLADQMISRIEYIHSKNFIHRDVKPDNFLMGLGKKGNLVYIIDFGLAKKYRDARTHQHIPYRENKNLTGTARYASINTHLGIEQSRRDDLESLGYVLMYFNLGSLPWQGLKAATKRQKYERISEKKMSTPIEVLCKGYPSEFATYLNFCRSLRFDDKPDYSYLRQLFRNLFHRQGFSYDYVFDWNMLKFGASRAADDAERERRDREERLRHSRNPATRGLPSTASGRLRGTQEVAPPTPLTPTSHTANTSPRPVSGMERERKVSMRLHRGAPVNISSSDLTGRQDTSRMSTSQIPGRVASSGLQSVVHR

CSK1E = CSK1E (Homo sapiens, UniProt P49674); assay: Kinase selectivity panel; format: biochemical
Chain of CSK1E (P49674 whole entry): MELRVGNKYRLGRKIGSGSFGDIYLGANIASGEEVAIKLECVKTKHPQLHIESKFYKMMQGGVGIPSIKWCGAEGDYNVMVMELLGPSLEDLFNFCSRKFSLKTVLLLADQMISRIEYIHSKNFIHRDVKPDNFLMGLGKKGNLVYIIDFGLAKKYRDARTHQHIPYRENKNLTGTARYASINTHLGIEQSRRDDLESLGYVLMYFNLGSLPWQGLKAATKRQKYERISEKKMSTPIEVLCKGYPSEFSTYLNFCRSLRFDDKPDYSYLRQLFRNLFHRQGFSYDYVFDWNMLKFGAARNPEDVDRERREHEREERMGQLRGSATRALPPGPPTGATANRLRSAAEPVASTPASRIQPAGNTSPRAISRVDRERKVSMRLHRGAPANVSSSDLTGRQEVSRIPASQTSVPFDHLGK

HCK = HCK (Homo sapiens, UniProt P08631); assay: Kinase selectivity panel; format: biochemical
Chain of HCK (P08631 whole entry): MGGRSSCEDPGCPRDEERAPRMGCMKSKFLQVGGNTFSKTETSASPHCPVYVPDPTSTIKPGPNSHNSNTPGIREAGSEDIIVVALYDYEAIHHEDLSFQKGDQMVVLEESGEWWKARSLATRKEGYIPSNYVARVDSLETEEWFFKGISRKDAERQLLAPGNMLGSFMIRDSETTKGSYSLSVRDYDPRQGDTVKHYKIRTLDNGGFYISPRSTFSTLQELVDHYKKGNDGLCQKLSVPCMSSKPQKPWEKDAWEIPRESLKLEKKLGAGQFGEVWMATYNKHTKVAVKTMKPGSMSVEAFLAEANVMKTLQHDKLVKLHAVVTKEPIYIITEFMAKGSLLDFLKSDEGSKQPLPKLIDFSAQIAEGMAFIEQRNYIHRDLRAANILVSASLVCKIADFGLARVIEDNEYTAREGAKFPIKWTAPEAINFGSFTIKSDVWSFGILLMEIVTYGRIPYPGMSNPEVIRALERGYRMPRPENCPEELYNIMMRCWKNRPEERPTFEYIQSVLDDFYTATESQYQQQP

PKM2 = PKM2 (Homo sapiens, UniProt P14618); assay: Kinase selectivity panel; format: biochemical
Chain of PKM2 (P14618 whole entry): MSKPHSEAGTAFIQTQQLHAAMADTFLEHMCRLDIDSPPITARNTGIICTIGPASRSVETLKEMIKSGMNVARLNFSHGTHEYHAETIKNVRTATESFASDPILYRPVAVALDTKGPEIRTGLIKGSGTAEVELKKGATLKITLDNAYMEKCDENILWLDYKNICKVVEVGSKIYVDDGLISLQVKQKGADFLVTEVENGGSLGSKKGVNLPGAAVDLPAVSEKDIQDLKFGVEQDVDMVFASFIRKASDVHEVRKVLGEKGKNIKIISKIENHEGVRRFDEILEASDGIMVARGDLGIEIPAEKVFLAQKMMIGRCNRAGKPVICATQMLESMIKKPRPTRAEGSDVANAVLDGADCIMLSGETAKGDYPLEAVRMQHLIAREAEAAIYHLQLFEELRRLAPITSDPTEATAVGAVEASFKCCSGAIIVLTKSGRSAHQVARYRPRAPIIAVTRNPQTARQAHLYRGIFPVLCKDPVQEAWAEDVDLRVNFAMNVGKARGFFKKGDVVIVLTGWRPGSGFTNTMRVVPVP

SYK = SYK (Homo sapiens, UniProt P43405); assay: Kinase selectivity panel; format: biochemical
MLC cells = assay: Cell viability by MTT assay in normal cells; format: cell-based; settings: concentrations up to 5 mM, 24 h; cells lacking VprBP-mediated H2AT120p
Description: FIGS. 8A-8I show characterization of B32B3 as a small-molecule VprBP kinase inhibitor, related to FIG. 4. (FIG. 8A) DU145 cells were infected with mock lentiviruse, VprBP-expressing shRNA lentivirus or Flag-VprBP-expressing lentivirus, and treated with the indicated concentrations of B32B3 for 24 h. Changes in H2AT120p as the results of B32B3 treatment were determined by the quantitative estimates of Western band intensity. Results represent the means±S.D. of three independent experiments. (FIG. 8B) DU145 cells were treated with the indicated concentrations of B32B3 and B20H6 for 72 h. Cell viability was measured by the MTT assay and was normalized to cells not exposed to the compounds. Data represent the means±S.D. of three independent experiments. […] (FIG. 8D) MLC cells were treated with B32B3 at the indicated doses for 24 h, and cell viability was assessed by MTT assay. […] (FIG. 8E) VprBP-mediated H2AT120p was analyzed in the presence of increasing concentrations of ATP and B32B3. (FIG. 8F) Body weights of vehicle or B32B3-treated mice were monitored during the treatment period. […] The stability of B32B3 in plasma was determined by LC-MS/MS at the indicated time points. […] Blood samples were collected at the indicated time points, and the concentration of B32B3 in plasma was analyzed by HPLC coupled mass spectrophotometry. […]

[1] = Mouse pharmacokinetics of B32B3; format: in vivo; settings: plasma, dose of 5 mg/kg in mice
Description: Mouse pharmacokinetic study was carried out using mice (n=5) that were fasted for 12 h prior to and 2 h after dosing with B32B3 (5 mg/kg). Blood samples were collected from orbital sinus at 10, 30, 60, 120, 240, and 480 min post dose. The plasma was separated from blood samples by centrifugation and analyzed in the Agilent 1200 HPLC system coupled to Agilent 6460A QQQ mass spectrophotometer. The plasma concentration-time data were analyzed by noncompartmental analysis using WinNonlin version 4.1 (Pharsight).

[2] = tested on: VprBP target genes in DU145 cells; assay: qRT-PCR of VprBP target genes; format: cell-based, human; settings: B32B3 1 mM
Description: Total RNA was isolated from mock- or VprBP-depleted cells using the TRIzol reagent according to the manufacturer's instructions (Invitrogen). Gene expression microarray experiments were conducted using a whole-genome expression array (Human HT-12 v4 Expression BeadChip, Illumina). This high density oligonucleotide array chip targets more than 47000 probe sequences derived from National Center for Biotechnology Information Reference Sequence (NCBI) RefSeq Release 38 (Nov. 7, 2009) and other sources. Data were processed and analyzed by the ArrayPipe software (www.pathogenomics.ca/arraypipe). For qRT-PCR, total RNA was extracted as described for microarray and subjected to RT reactions with the use of PerfeCta® SYBR Green FastMix (Quanta BIOSCIENCES) and an iCycler IQ5 real time cycler (Bio-Rad). The specificity of the amplification reactions were monitored by melting curve analysis. Assays were normalized to β-actin mRNA levels. The following primers were used for qRT-PCR: […]

Chain of CDK7 (P50613 whole entry): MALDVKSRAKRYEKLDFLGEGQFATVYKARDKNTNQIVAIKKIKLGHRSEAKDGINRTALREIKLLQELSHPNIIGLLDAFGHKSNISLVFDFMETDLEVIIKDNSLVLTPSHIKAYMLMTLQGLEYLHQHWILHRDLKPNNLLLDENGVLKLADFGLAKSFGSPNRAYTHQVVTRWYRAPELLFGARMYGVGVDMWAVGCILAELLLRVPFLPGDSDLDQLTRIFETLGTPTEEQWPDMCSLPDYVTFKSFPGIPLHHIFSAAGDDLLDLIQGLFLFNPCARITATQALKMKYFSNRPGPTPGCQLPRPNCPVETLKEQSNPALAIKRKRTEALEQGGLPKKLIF
Chain of CDK7 (P51946 whole entry partner): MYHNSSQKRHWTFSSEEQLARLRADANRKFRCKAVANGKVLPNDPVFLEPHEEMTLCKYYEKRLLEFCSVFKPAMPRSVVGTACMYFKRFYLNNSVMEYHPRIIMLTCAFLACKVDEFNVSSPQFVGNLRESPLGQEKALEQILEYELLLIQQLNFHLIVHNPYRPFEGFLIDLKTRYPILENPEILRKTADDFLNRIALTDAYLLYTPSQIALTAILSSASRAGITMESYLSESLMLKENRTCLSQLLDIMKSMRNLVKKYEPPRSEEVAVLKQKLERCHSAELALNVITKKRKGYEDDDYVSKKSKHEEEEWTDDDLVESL
Chain of CDK7 (P51948 whole entry partner): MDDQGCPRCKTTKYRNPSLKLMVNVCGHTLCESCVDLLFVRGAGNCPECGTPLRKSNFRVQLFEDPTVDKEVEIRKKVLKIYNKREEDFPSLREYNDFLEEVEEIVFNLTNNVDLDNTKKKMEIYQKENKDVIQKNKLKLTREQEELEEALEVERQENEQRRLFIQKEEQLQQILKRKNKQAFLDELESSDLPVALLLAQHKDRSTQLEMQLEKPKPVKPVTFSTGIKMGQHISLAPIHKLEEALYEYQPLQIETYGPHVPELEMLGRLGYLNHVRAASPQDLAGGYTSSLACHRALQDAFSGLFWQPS
Chain of AURKA (O14965 whole entry): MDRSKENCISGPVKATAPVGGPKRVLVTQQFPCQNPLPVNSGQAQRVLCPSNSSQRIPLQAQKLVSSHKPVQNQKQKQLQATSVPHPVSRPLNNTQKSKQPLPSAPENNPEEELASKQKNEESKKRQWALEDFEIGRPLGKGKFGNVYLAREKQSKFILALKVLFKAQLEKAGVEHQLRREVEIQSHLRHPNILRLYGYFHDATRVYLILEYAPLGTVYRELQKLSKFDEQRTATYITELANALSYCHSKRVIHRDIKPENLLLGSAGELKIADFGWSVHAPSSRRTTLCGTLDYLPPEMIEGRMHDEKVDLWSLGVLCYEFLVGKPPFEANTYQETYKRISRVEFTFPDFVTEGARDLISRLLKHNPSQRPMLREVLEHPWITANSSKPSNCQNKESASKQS

Q: With c1ccc2c(CNNc3ncnc4sc5c(c34)CCCC5)c[nH]c2c1 [B32B3] as the compound, how does the pIC50 (AURKA) read?
A: < 5.00

Q: And the pIC50 (BCK)?
A: < 5.00

Q: What about the pIC50 (CDK7) of the same compound?
A: < 5.00

Q: What about the pIC50 (CHK1) of the same compound?
A: < 5.00

Q: And the pIC50 (CSNK1D)?
A: < 5.00

Q: And the pIC50 (CSK1E)?
A: < 5.00

Q: What about the pIC50 (HCK) of the same compound?
A: < 5.00

Q: What about the pIC50 (PKM2) of the same compound?
A: < 5.00

Q: What about the pIC50 (SYK) of the same compound?
A: < 5.00

Q: And the “Effect on proliferation of MLC cells” value (MLC cells)?
A: minimally antagonized

Q: And the Cmax [1]?
A: 1000 nM

Q: And the “Expression of VprBP target genes” value [2]?
A: higher expression of VprBP target genes
